In patent publication US20100267616A1, “ACUTE R[…]” (ImmuneRegen Biosciences, Inc., priority 2003, published 2010):

System: diesel fuel smoke lung injury (model of ARDS and SARS)
Design: species or system rats and rabbits
Conditions: in vivo, iv

Sar^9, Met (02) 11-Substance P
6-keto-PGF1α: decreased | PGE2: decreased | clara cell necrosis: attenuated | damage to the alveolar-capillary barrier membrane: attenuates | pulmonary alveolar macrophage number: reduced
